Experimental data as given in PubChem BioAssay (NCI).
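These data come from cells grown in 96-well plates and exposed to compound for 48 hours at five concentrations. GI50 = concentration required for 50% inhibition of growth. TGI: total growth inhibition.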

Assays:
Assay in all cases: DTP human tumour cell line panel, 48 h; in the data active = GI50 below about 0.43 µM; inactive = the rest
[1] = system: NCI/ADR-RES ovarian
[2] = system: K-562 leukemia
[3] = system: SNB-75 CNS
[4] = system: SK-OV-3 ovarian
[5] = system: T-47D breast
[6] = system: RXF 393 renal
[7] = system: SW-620 colon
[8] = system: BT-549 breast
[9] = system: NCI-H23 lung
[10] = system: OVCAR-4 ovarian
[11] = system: IGROV1 ovarian
[12] = system: EKVX NSCLC
[13] = system: 786-0 renal
[14] = system: NCI-H522 lung
[15] = system: LOX IMVI melanoma
[16] = system: SF-295 CNS
[17] = system: HOP-92 NSCLC
[18] = system: MDA-MB-435
[19] = system: UACC-62 melanoma
[20] = system: DU-145 prostate
[21] = system: OVCAR-8 ovarian
[22] = system: CCRF-CEM leukemia
[23] = system: MOLT-4 leukemia
[24] = system: SK-MEL-2 melanoma
[25] = system: A549 NSCLC
[26] = system: U251 CNS
[27] = system: KM12 colon
[28] = system: UACC-257 melanoma
[29] = system: SK-MEL-5 melanoma
[30] = system: SK-MEL-28 melanoma
[31] = system: SF-268 CNS
[32] = system: HCT-15 colon
[33] = system: CAKI-1 renal
[34] = system: TK-10 renal
[35] = system: SN12C renal
[36] = system: ACHN renal
[37] = system: OVCAR-5 ovarian
[38] = system: MALME-3M melanoma
[39] = system: SNB-19 CNS
[40] = system: RPMI-8226 leukemia
[41] = system: HOP-62 NSCLC
[42] = system: HT29 colon
[43] = system: COLO 205 colon
[44] = system: SF-539 CNS
[45] = system: A498 renal
[46] = system: MCF7 breast
[47] = system: HCC-2998 colon
[48] = system: HL-60(TB) leukemia
[49] = system: NCI-H226 lung
[50] = system: SR leukemia
[51] = system: HS 578T breast
[52] = system: M14 melanoma
[53] = system: UO-31 renal
[54] = system: NCI-H460 lung
[55] = system: MDA-MB-231 breast
[56] = system: HCT-116 colon
[57] = system: PC-3 prostate

NC(N)=Nc1ccc(Nc2cccc(Oc3ccc(Cl)c(C(F)(F)F)c3)c2)cn1
4.55 µM: TGI [5]
> 100 µM: TGI [1] | TGI [2]
3.33 µM: TGI [3]
13.2 µM: TGI [4]
inactive: GI50 [1] 15.6 µM | GI50 [2] 2.11 µM | GI50 [3] 1.6 µM | GI50 [4] 3.5 µM | GI50 [5] 1.62 µM

Cn1ccnc1C(=O)/C=C/c1ccc(CNC(=O)c2ccc(F)cc2)cc1
21 µM: TGI [29]
7.74 µM: TGI [14]
6.19 µM: TGI [53]
9.3 µM: TGI [9]
10.4 µM: TGI [18] | TGI [48]
7.05 µM: TGI [43]
4.4 µM: TGI [15]
19.2 µM: TGI [28]
9.47 µM: TGI [19]
6.77 µM: TGI [8]
7.54 µM: TGI [47]
5.98 µM: TGI [40]
10.8 µM: TGI [57]
12.5 µM: TGI [41]
17.4 µM: TGI [34]
8.47 µM: TGI [56]
4.89 µM: TGI [20]
7.27 µM: TGI [6]
14.8 µM: TGI [24]
24.7 µM: TGI [17]
5.44 µM: TGI [27]
> 25 µM: TGI [10] | TGI [12] | TGI [1] | TGI [16] | TGI [2] | TGI [21] | TGI [22] | TGI [3] | TGI [25] | TGI [32] | TGI [4] | TGI [33] | TGI [35] | TGI [46] | TGI [49] | TGI [50] | TGI [51] | TGI [55]
12.2 µM: TGI [38] | TGI [52]
11.6 µM: TGI [30]
6.79 µM: TGI [45]
9.04 µM: TGI [37]
6.7 µM: TGI [26]
8.72 µM: TGI [7] | TGI [36]
7.36 µM: TGI [42]
10.5 µM: TGI [39] | TGI [54]
15.8 µM: TGI [23]
6.28 µM: TGI [44]
22.9 µM: TGI [5]
12.1 µM: TGI [11] | TGI [13]
inactive: GI50 [6] 3.11 µM | GI50 [7] 2.77 µM | GI50 [8] 2.61 µM | GI50 [9] 3.58 µM | GI50 [10] 5.49 µM | GI50 [11] 3.03 µM | GI50 [12] 10.4 µM | GI50 [13] 4.12 µM | GI50 [1] 6.06 µM | GI50 [14] 4.04 µM | GI50 [15] 1.19 µM | GI50 [16] 9.12 µM | GI50 [2] 1.02 µM | GI50 [17] 5.32 µM | GI50 [18] 4.08 µM | GI50 [19] 4.26 µM | GI50 [20] 1.5 µM | GI50 [21] 6.62 µM | GI50 [22] 2.55 µM | GI50 [23] 5.03 µM | GI50 [3] 2.5 µM | GI50 [24] 4.95 µM | GI50 [25] 5.74 µM | GI50 [26] 2.35 µM | GI50 [27] 2.13 µM | GI50 [28] 5.52 µM | GI50 [29] 7.08 µM | GI50 [30] 4.82 µM | GI50 [31] 2.98 µM | GI50 [32] 1.9 µM | GI50 [4] 7.54 µM | GI50 [33] 2.36 µM | GI50 [34] 5.92 µM | GI50 [35] 6.67 µM | GI50 [36] 4.17 µM | GI50 [37] 3.54 µM | GI50 [38] 4.48 µM | GI50 [39] 3.39 µM | GI50 [40] 1.01 µM | GI50 [41] 3.69 µM | GI50 [42] 2.98 µM | GI50 [43] 2.78 µM | GI50 [44] 2.59 µM | GI50 [45] 3.35 µM | GI50 [46] 1.67 µM | GI50 [47] 3.8 µM | GI50 [48] 2.99 µM | GI50 [49] 6.9 µM | GI50 [50] 0.792 µM | GI50 [51] 8.13 µM | GI50 [52] 4.7 µM | GI50 [53] 2.63 µM | GI50 [54] 3.4 µM | GI50 [5] 2.54 µM | GI50 [55] 5.9 µM | GI50 [56] 3.46 µM | GI50 [57] 3.87 µM
9.42 µM: TGI [31]
